Assay results as given in patent US20150265644A1, “THERAPEUTIC METHODS AND COMPOSITIONS FOR TREATING DIABETES UTILIZING DITERPENOID COMPOUNDS” (Orient Europharma Co., Ltd., priority 2014, published 2015).

Columns and labels:
[1] = system: C2C12 skeletal muscle cells; assay: Glycogen content assay in differentiated C2C12 myotubes; assay type: cell-based; conditions: 30 minutes
Experimental: (§1) The C2C12 skeletal muscle cells were cultured in Dulbecco's modified Eagle's medium (DMEM; Gibco/Invitrogen, Carlsbad, Calif.), and the human hepatocellular carcinoma cell line, Hl-ep3B, was cultured in Roswell Park Memorial Institute medium 1640 (RPMI 1640 medium; Gibco/Invitrogen, Carlsbad, Calif.). Cells were cultured at 37° C. in the humidified incubator supplied with 5% CO2. Culture mediums were supplemented with 4.5 mgmL^−1 glucose, penicillin 100 IUmL^−1, streptomycin 100 μgmL^−1 and 10% fetal bovine serum (Gibco/Invitrogen, Carlsbad, Calif.). Only C2C12 cells were then switched to 2% horse serum for 3 days after reaching the 70% confluence. Myotubes formation was achieved after 4 days of incubation, and the cells were used for subsequent experiments. Culture mediums were replaced by serum free DMEM or RPMI for 24 h before experiments (see e.g., procedure described in Sultan et al., 2006).
(§2) C2C12 and Hep3B cells were treated with 1 nM insulin, 100 μM metformin, and the assigned concentration of borapetoside A for 30 minutes. To develop the insulin resistance state of cells, C2C12 cells were incubated with IL-6 at 20 ngmL^−1 for 1 hour. Later, the cells were treated with 1 nM insulin, 100 μM metformin, and the assigned concentration of borapetoside A for 30 minutes. After the assigned treatment, cells were washed twice with phosphate buffered saline (PBS). Glycogen content was measured as previously described, with some modifications (see e.g., Savage et al., 2008). The protein concentrations of the cell lysates were determined by using Pierce BCA Protein Assay Kit (Thermo-Scientific, Rockford, Ill.). The glycogen content of each sample was normalized by total protein.

[2] = Plasma glucose after single intraperitoneal injection in mice; assay type: in vivo; conditions: 60 min; for dose giving significant decrease of plasma glucose level: single i.p. dose; for plasma glucose level: 0.1-10 mgkg^−1 i.p., dose-dependent
Experimental: The 4-week-old male ICR mice were purchased from the Animal Center of the College of Medicine, National Taiwan University (Taipei, Taiwan) with delicate humane care. This animal study was conducted by following the University ethical guidelines and the ‘Guide for the Care and Use of Laboratory Animals’ published by the US National Institutes of Health (NIH publication no. 85-23, revised 1996). The animal experiments were approved by the Institutional Animal Care and Use Committee (IACUC) of the National Taiwan University (IACUC No. 20110073). Animals were housed in a room at the constant temperature, 22±1° C., with 12 hours light and dark cycles.
(§3) After three days of acclimatization, the mice had free access to a standard rodent chow (normal mice), a standard rodent chow after single 250 mgkg^−1 streptozotocin (STZ) intraperitoneal injection (TIDM mice), and a fat-rich chow diet and fructose-sweetened water (T2DM mice) for 4 weeks. The induction of Type 1 DM was assessed and confirmed when the mice had plasma glucose levels ≧350 mgdL^−1, accompanied with polyuria, hyperphagia and decreased body weight. The induction Type 2 DM in the mice was assessed by measuring fasting plasma glucose levels and confirmed when plasma glucose level was ≧150 mgdL^−1 after the 4-week induction. The animals were assigned randomly into three groups, with seven animals in each group. In group I, the mice were treated with vehicle, 2% DMSO in normal saline, as the negative control. In group II, the mice were intraperitoneally treated with borapetoside A (0.1-10 mgkg^−1). In […], the mice received intraperitoneally metformin (300 mgkg^−1; Sigma Chemical Co., St. Louis, Mo., U.S.A.) or insulin (0.5 IUkg^−1; Insulin Actrapid® HM; Novo Nordisk, Denmark). In the acute study, mice under anesthesia received a single intraperitoneal administration of borapetoside A, negative control, or positive control. In the subacute study, mice received intraperitoneal administrations of borapetoside A, vehicle, or insulin twice a day for seven days.
(§4) Blood samples were collected from the orbital vascular plexus of the mice under anesthesia. Blood samples were then centrifuged at 13000 rpm for 5 min, and the plasma samples were collected and kept on ice prior to the assay. The plasma glucose concentration was measured by Glucose Kit Reagent (Biosystems S.A., Barcelona, Spain) following the manufacturer's instructions, and the insulin levels were estimated using mouse insulin ELISA kit (Mercodia AB, Uppsala, Sweden).

[3] = system: human hepatocellular carcinoma cell line Hep3B; assay: Glycogen content assay in Hep3B cells; assay type: cell-based; conditions: 30 minutes
Experimental: as §1, §2

[4] = system: phospho-insulin receptor β (IRβ) (Tyr^1345); assay: Western blot of liver, phospho-insulin receptor; assay type: in vivo; conditions: mice with type 1 DM, 10 mgkg^−1 i.p. twice a day for 7 days
Experimental: (§5) After three days of acclimatization, the mice had free access to a standard rodent chow (normal mice), a standard rodent chow after single 250 mgkg^−1 streptozotocin (STZ) intraperitoneal injection (TIDM mice), and a fat-rich chow diet and fructose-sweetened water (T2DM mice) for 4 weeks. The induction of Type 1 DM was assessed and confirmed when the mice had plasma glucose levels ≧350 mgdL^−1, accompanied with polyuria, hyperphagia and decreased body weight. The induction Type 2 DM in the mice was assessed by measuring fasting plasma glucose levels and confirmed when plasma glucose level was ≧150 mgdL^−1 after the 4-week induction. […]
(§6) Western blot analysis was carried out by known methods with a slight modification. […] After centrifuging the homogenates at 10,000 g for 30 minutes, the protein concentrations were determined by using a BCA Protein Assay Kit (Pierce Biotechnology, Rockford, Ill.). […] The membranes were analysed by using the antibodies against phospho-insulin receptor β (IRβ) (Tyr^1345), phospho-Akt (Ser^473), phosphor-AS160 (Thr^642), AS160 (Cell Signaling Technology, Beverly, Mass.), IRβ, Akt, β-Actin (Santa Cruz Biotechnology, Santa Cruz, Calif.), GLUT2 (Abcam, Cambridge, UK), and PEPCK (a gift from Professor D K Granner), respectively. […] The intensity of each band was quantified with ImageQuant.

[5] = Intraperitoneal glucose tolerance test; assay type: in vivo, mice
Experimental: as §3, §4
The mice were maintained under anesthesia throughout the procedure. Glucose (2.0 gkg^−1) was administered intraperitoneally. Blood samples were collected from the orbital vascular plexus at 0, 30, 60, 120 min. The concentrations of the plasma glucose were measured, and the values of AUC were calculated accordingly.

IL-6-treated C2C12 cells = assay: Glycogen content assay in IL-6-induced insulin resistant C2C12 cells; assay type: cell-based; conditions: 30 minutes
Experimental: as §1, §2

phospho-Akt (Ser^473) = assay: Western blot of liver, phospho-Akt; assay type: in vivo; conditions: mice with type 1 DM, 10 mgkg^−1 i.p. twice a day for 7 days
Experimental: as §5, §6

In the case of `C[C@@]12C[C@@H](c3ccoc3)OC(=O)[C@@H]1C[C@@H]1OC(=O)[C@@]3(O)[C@@H](O[C@@H]4O[C@H](CO)[C@@H](O)[C@H](O)[C@H]4O)CC[C@@H]2[C@@]13C` [borapetoside A], the “fold increase of glycogen” value ([1]; 10^−6 mol/L) is reported as 1.49±0.15 fold, the “fold increase of glycogen” value ([1]; 10^−7 mol/L) is reported as 1.28±0.04 fold and the “fold increase of glycogen” value [1] is reported as 1.53±0.10 fold. For the same molecule, the “dose giving significant decrease of plasma glucose level” value ([2]; mice with type 2 DM) was “higher than 0.3 mgkg^−1”, the plasma glucose level ([2]; normal mice) was “lowered” and the “dose giving significant decrease of plasma glucose level” value ([2]; normal mice) was no less than 1 mgkg^−1. For the same molecule, the plasma glucose level ([2]; type 1 DM mice) was “lowered”, the plasma glucose level ([2]; type 2 DM mice) was “lowered” and the “fold increase of glycogen content” value ([3]; 10^−5 mol/L) was 1.54±0.11 fold. For the same molecule, the “fold increase of glycogen content” value ([3]; 10^−6 mol/L) was 1.39±0.12 fold, the “fold increase of glycogen content” value ([3]; 10^−7 mol/L) was 1.46±0.05 fold and the “phosphorylated IR in liver” value [4] was “increased”. The “increase of plasma glucose level at 30 min” value ([5]; 0.1, 1, and 10 mgkg^−1, compared to the vehicle group, normal and type 2 DM mice) was “significantly suppressed”, the “area under the curve (AUC) of plasma glucose, % of vehicle control” value (shortened to “area under the curve … % of vehicle control”) ([5]; normal mice, 0.1 mgkg^−1) was 78.8±3.0% and the “area under the curve … % of vehicle control” value ([5]; normal mice, 1 mgkg^−1) was 69.9±7.1%. For the same molecule, the “area under the curve … % of vehicle control” value ([5]; normal mice, 10 mgkg^−1) was 68.91±3.5%, the “area under the curve … % of vehicle control” value ([5]; type 2 DM bearing mice, 0.1 mgkg^−1) was 74.9±4.5% and the “area under the curve … % of vehicle control” value ([5]; type 2 DM bearing mice, 1 mgkg^−1) was 71.1±3.2%. The “area under the curve … % of vehicle control” value ([5]; type 2 DM bearing mice, 10 mgkg^−1) was 68.9±1.9%, the “fold increase of glycogen content” value (IL-6-treated C2C12 cells; IL-6-treated C2C12, 10^−6 mol/L) was 1.64±0.05 fold and the “fold increase of glycogen content” value (IL-6-treated C2C12 cells; IL-6-treated C2C12, 10^−7 mol/L) was 1.38±0.06 fold. For the same molecule, the “fold increase of glycogen content” value (IL-6-treated C2C12 cells; IL-6-treated C2C12, 10^−8 mol/L) was 1.35±0.08 fold and the “phosphorylated Akt in liver” value (phospho-Akt (Ser^473)) was “increased”.
